Consider 19 compounds from US10239849B2 (Merck Sharp & Dohme Corp., priority 2015, dated 2019).

Each structure is given as a SMILES string.

For assay [1], the target named is T1, glutathione-S-transferase (GST) tagged LXRbeta LBD (ligand binding domain) (Homo sapiens, UniProt P55055).
T1 construct: purchased Invitrogen pv4658.pps
T1 sequence (P55055 222-460 limits assumed): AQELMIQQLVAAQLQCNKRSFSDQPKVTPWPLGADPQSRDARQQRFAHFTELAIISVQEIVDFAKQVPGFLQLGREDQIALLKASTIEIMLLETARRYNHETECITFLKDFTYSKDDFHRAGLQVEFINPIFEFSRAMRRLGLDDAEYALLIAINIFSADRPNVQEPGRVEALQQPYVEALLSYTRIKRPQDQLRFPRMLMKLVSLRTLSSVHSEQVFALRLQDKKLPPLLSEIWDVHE
The experiment in a line: LanthaScreen TR-FRET Liver X Receptor Coactivator Assay, LXR beta-LBD. Format: biochemical. Particulars: for Emax: efficacy in relation to reference dual agonist T1317, read-out: LXR beta activity at max dose (%) (Emax); for EC50: potency (Inflection Point) of co-activator recruitment, TR-FRET, read-out: LXR beta IP. On the procedure:
(§1) While running the LanthaScreen™ TR-FRET Liver X Receptor Coactivator Assay, LXR alpha-LBD or LXR beta-LBD was added to ligand test compounds followed by addition of a mixture of a fluorescein-labelled coactivator peptide and terbium-conjugated anti-GST antibody. After an incubation period at room temperature, TR-FRET (time-resolved fluorescence resonance energy transfer) was measured using a filter-based instrument capable of TR-FRET, e.g. PerkinElmer Envision.

In assay [2] the target is T2, glutathione-S-transferase (GST) tagged LXRalpha LBD (ligand binding domain) (Homo sapiens, UniProt Q13133).
T2 construct: purchased Invitrogen pv4655
T2 sequence (Q13133 209-447 limits assumed): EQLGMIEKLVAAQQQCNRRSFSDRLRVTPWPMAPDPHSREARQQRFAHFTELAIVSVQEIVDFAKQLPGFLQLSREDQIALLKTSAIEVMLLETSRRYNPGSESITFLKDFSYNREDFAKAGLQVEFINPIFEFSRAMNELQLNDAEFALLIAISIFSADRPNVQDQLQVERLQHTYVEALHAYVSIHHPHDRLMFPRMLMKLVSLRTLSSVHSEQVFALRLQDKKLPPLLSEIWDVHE
Description: LanthaScreen TR-FRET Liver X Receptor Coactivator Assay, LXR alpha-LBD. Format: biochemical. The conditions noted are these: for Emax: efficacy in relation to reference dual agonist T1317, read-out: LXR alpha activity at max dose (%) (Emax); for EC50: read-out: LXR alpha IP. The protocol: as §1

The mark [3] stands for this setting: potency (Inflection Point) of co-activator recruitment, TR-FRET.

For orientation: Emax means the maximal effect, on the per cent scale that the assay sets. For `CN(C)C(=O)c1ccc(-c2cnc(N3CCN(C(=O)C(O)(c4ccccc4Cl)C(F)(F)F)CC3)c(C#N)c2)cc1Cl` (stereo not shown) [Example 2-38, 2-chloro-4-(6-{4-[2-(2-chlorophenyl)-3,3,3-trifluoro-2-hydroxypropanoyl]piperazin-1-yl}-5-cyanopyridin-3-yl)-N,N-dimethylbenzamide], the values for the Emax in assay [1] and in assay [2] were 69% and 18%, respectively. The figures for the EC50 in assay [1] and in assay [2] (setting [3]) were 13 nM and 292 nM, respectively.
The matching figures for `CN(C)C(=O)c1ccc(-c2ccc(N3CC4CCC(C3)N4S(=O)(=O)c3c(Cl)cccc3Cl)c(Cl)c2)cc1Cl` [Example 8-16, 3,3′-dichloro-4′-{8-[(2,6-dichlorophenyl)sulfonyl]-3,8-diazabicyclo[3.2.1]oct-3-yl}-N,N-dimethylbiphenyl-4-carboxamide]: 82%, 79%, 37 nM and 569 nM.
The matching figures for `CN(C)C(=O)c1ccc(-c2cnc(N3CCN(C(=O)OCc4ccccc4)CC3)c(C#N)c2)cc1Cl` [Example 3-14, benzyl 4-{5-[3-chloro-4-(dimethylcarbamoyl)phenyl]-3-cyanopyridin-2-yl}piperazine-1-carboxylate]: 74%, 26%, 57 nM and 4830 nM.
`CN(C)C(=O)c1ccc(-c2cnc(N3CCN(C(=O)OCc4ccccc4F)CC3)c(C#N)c2)cc1Cl` [Example 3-6, 2-fluorobenzyl 4-{5-[3-chloro-4-(dimethylcarbamoyl)phenyl]-3-cyanopyridin-2-yl}piperazine-1-carboxylate]: the Emax in assay [1] worked out at 92%; in assay [2], 50%. The EC50 came out at 21 nM in assay [1] and 6610 nM in assay [2] (setting [3]).
`CN(C)C(=O)c1ccc(-c2cnc(N3CCN(C(=O)OC(C)(C)C)CC3)c(C#N)c2)cc1C(F)(F)F` [Example 8-9, tert-butyl 4-{3-cyano-5-[4-(dimethylcarbamoyl)-3-(trifluoromethyl)phenyl]pyridin-2-yl}piperazine-1-carboxylate]: the Emax in assay [1] is 73%; in assay [2], 30%. In addition, the EC50 in assay [1] is 1660 nM; in assay [2] (setting [3]), 10800 nM.
Consider `CC(C)(C)OC(=O)N1CCN(c2ncc(-c3ccc(C(=O)N4CC[C@H](O)C4)c(Cl)c3)cc2C#N)CC1` [Example 5-13, tert-butyl 4-[5-(3-chloro-4-{[(3S)-3-hydroxypyrrolidin-1-yl]carbonyl}phenyl)-3-cyanopyridin-2-yl]piperazine-1-carboxylate], for which the Emax stood at 62% in assay [1] and 44% in assay [2]. In addition, the figures for the EC50 in assay [1] and in assay [2] (setting [3]) were 262 nM and 6900 nM, respectively.
In the case of `CN(C)C(=O)c1ccc(-c2ccc(N3CCN(C(=O)c4c(F)cccc4C(F)(F)F)CC3)cc2)cc1Cl` [Example 4-12, 3-chloro-4′-(4-{[2-fluoro-6-(trifluoromethyl)phenyl]carbonyl}piperazin-1-yl)-N,N-dimethylbiphenyl-4-carboxamide], in assay [1], the Emax was found to be 83% and the EC50 was 881 nM. Also, in assay [2], the Emax is 20%. The “LXR alpha IP (nM)” value in assay [2] (setting [3]) is recorded as “No IP”.
For `CN(C)C(=O)c1ccc(-c2cnc(N3CCN(C(=O)C4(c5ccccc5)CC4)CC3)c(C#N)c2)cc1Cl` [Example 2-17, 2-chloro-4-(5-cyano-6-{4-[(1-phenylcyclopropyl)carbonyl]piperazin-1-yl}pyridin-3-yl)-N,N-dimethylbenzamide], the Emax in assay [1] turned out to be 95%; in assay [2] it was 27%. Also, the EC50 was determined as 27 nM in assay [1] and 4360 nM in assay [2] (setting [3]).
The matching figures for `CN(C)C(=O)c1ccc(-c2cnc(N3CCN(C(=O)OC(C)(C)C)CC3Cc3ccccc3)c(C#N)c2)cc1Cl` (stereo not shown) [Example 8-13, tert-butyl 3-benzyl-4-{5-[3-chloro-4-(dimethylcarbamoyl)phenyl]-3-cyanopyridin-2-yl}piperazine-1-carboxylate]: 120%, 78%, 18 nM and 538 nM.
In the case of `CN(C)C(=O)c1ccc(-c2ccc(N3CC4CCC(C3)N4C(=O)OC(C)(C)C)c(Cl)c2)cc1Cl` [Example 8-10, tert-butyl 3-[3,3′-dichloro-4′-(dimethylcarbamoyl)biphenyl-4-yl]-3,8-diazabicyclo[3.2.1]octane-8-carboxylate], the Emax in assay [1] was determined as 63%; in assay [2], 64%. The EC50 stood at 70 nM in assay [1] and 660 nM in assay [2] (setting [3]).
The matching figures for `CN(C)C(=O)c1ccc(-c2cnc(N3CCN(S(=O)(=O)c4c(Cl)cccc4C(F)(F)F)CC3)c(C#N)c2)cc1Cl` [Example 1-18, 2-chloro-4-[6-(4-{[2-chloro-6-(trifluoromethyl)phenyl]sulfonyl}piperazin-1-yl)-5-cyanopyridin-3-yl]-N,N-dimethylbenzamide]: 126%, 62%, 151 nM and 1670 nM.
The matching figures for `CN(C)C(=O)c1ccc(-c2cnc(N3CCN(C(=O)C4(c5ccccc5F)CCCC4)CC3)c(C#N)c2)cc1Cl` [Example 2-29, 2-chloro-4-[5-cyano-6-(4-{[1-(2-fluorophenyl)cyclopentyl]carbonyl}piperazin-1-yl)pyridin-3-yl]-N,N-dimethylbenzamide]: 93%, 57%, 15 nM and 4230 nM.
In the same order, the values of `CN(C)C(=O)c1ccc(-c2cnc(N3CCN(C(=O)c4c(F)cccc4Cl)CC3)c(C#N)c2)cc1Cl` [Example 2-21, 2-chloro-4-(6-{4-[(2-chloro-6-fluorophenyl)carbonyl]piperazin-1-yl}-5-cyanopyridin-3-yl)-N,N-dimethylbenzamide] are 59%, 41%, 147 nM and 6290 nM.
For `Cc1nc(CCN(C)C(=O)c2ccc(-c3cnc(N4CCN(C(=O)OC(C)(C)C)CC4)c(C#N)c3)cc2Cl)no1` [Example 5-28, tert-butyl 4-[5-(3-chloro-4-{methyl[2-(5-methyl-1,2,4-oxadiazol-3-yl)ethyl]carbamoyl}phenyl)-3-cyanopyridin-2-yl]piperazine-1-carboxylate], the Emax in assay [1] worked out at 84%; in assay [2] it was 71%. For the same compound, the EC50 in assay [1] worked out at 164 nM; in assay [2] (setting [3]) it was 3710 nM.
In the same order, the values of `CN(C)C(=O)c1ccc(-c2cnc(N3CCN(C(=O)OCc4c(Cl)cccc4Cl)CC3)c(C#N)c2)cc1Cl` [Example 3-1, 2,6-dichlorobenzyl4-{5-[3-chloro-4-(dimethylcarbamoyl)phenyl]-3-cyanopyridin-2-yl}piperazine-1-carboxylate] are 119%, 60%, 12 nM and 2310 nM.
Take `CN(C)C(=O)c1ccc(-c2cnc(N3CCN(C(=O)C(O)(CCc4ccccc4)C(F)(F)F)CC3)c(C#N)c2)cc1Cl` (stereo not shown) [Example 2-37, 2-chloro-4-(5-cyano-6-{4-[2-hydroxy-4-phenyl-2-(trifluoromethyl)butanoyl]piperazin-1-yl}pyridin-3-yl)-N,N-dimethylbenzamide]: the Emax in assay [1] turned out to be 58%; in assay [2], 55%. Further, the EC50 in assay [1] is 735 nM; in assay [2] (setting [3]), 97600 nM.
In the same order, the values of `CN(C)C(=O)c1ccc(-c2cnc(N3CCN(C(=O)[C@H](O)C(F)(F)F)CC3)c(C#N)c2)cc1Cl` [Example 2-11, 2-chloro-4-(5-cyano-6-{4-[(2S)-3,3,3-trifluoro-2-hydroxypropanoyl]piperazin-1-yl}pyridin-3-yl)-N,N-dimethylbenzamide] are 77%, 30%, 1060 nM and 27900 nM.
The matching figures for `CN(C)C(=O)c1ccc(-c2cnc(N3CCN(C(=O)[C@](C)(O)C(F)(F)F)CC3)c(C#N)c2)cc1Cl` [Example 2-16, 2-chloro-4-(5-cyano-6-{4-[(2S)-3,3,3-trifluoro-2-hydroxy-2-methylpropanoyl]piperazin-1-yl}pyridin-3-yl)-N,N-dimethylbenzamide]: 94%, 58%, 242 nM and 13000 nM.
In the same order, the values of `CN(C)C(=O)c1ccc(-c2cnc(N3CCN(C(=O)C(C)(C)C)CC3)c(C#N)c2)cc1Cl` [Example 2-3, 2-chloro-4-{5-cyano-6-[4-(2,2-dimethylpropanoyl)piperazin-1-yl]pyridin-3-yl}-N,N-dimethylbenzamide] are 105%, 67%, 56 nM and 4810 nM.
